The values that follow come from ChEMBL document CHEMBL1146327, “Inhibitors of the FEZ-1 metallo-beta-lactamase” (Bioorg Med Chem Lett, 2007).

The source made the active and inactive calls. The rule behind the calls is not given here. Bounds are passed on as bounds.

The nature of test [1]: Inhibition of metallo-beta-lactamases L1 assessed as residual activity at 100 uM.
In test [2] the test system is Fluoribacter gormanii. The test can be described thus: (§1) Inhibition of metallo-beta-lactamases FEZ1. On the set-up: concentration or dose not given beside the values. Particulars: concentration not given here.
Test [3] has as its system Fluoribacter gormanii. In words: Inhibition of metallo-beta-lactamases FEZ1 assessed as residual activity at 100 uM.
For test [4], the system named is Bacillus cereus. The test can be described thus: Inhibition of metallo-beta-lactamases Bc2 assessed as residual activity at 100 uM.
Test [5] concerns the target Metallo-beta-lactamase type 2 (Pseudomonas aeruginosa) (UniProt Q7WYA8). The test can be described thus: Inhibition of metallo-beta-lactamases IMP1 assessed as residual activity at 100 uM.
Test [6] concerns the target Metallo-beta-lactamase type 2 (Aeromonas hydrophila) (UniProt P26918). In words: Inhibition of metallo-beta-lactamases CphA assessed as residual activity at 100 uM.
Test [7] can be described thus: Inhibition of metallo-beta-lactamases L1. Particulars: for inhibition: concentration not given here.
The subject of test [8] is Bacillus cereus. In words: Inhibition of metallo-beta-lactamases Bc2. Particulars: for inhibition: concentration not given here.
For test [9], the target named is Metallo-beta-lactamase type 2 (Pseudomonas aeruginosa) (UniProt Q7WYA8). The test can be described thus: Inhibition of metallo-beta-lactamases IMP1. As to conditions: for inhibition: concentration not given here.
Sequence of Metallo-beta-lactamase type 2 (Pseudomonas aeruginosa) (Q7WYA8 whole entry): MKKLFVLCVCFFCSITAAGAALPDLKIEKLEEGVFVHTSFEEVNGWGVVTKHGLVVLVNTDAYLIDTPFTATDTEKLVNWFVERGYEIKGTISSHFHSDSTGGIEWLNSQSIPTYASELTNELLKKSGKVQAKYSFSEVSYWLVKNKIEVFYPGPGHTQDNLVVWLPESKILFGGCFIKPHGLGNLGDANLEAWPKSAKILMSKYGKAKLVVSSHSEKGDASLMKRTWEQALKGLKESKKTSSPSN
The target of test [10] is Metallo-beta-lactamase type 2 (Aeromonas hydrophila) (UniProt P26918). The test can be described thus: Inhibition of metallo-beta-lactamases CphA. Particulars: for inhibition: concentration not given here.
Sequence of Metallo-beta-lactamase type 2 (Aeromonas hydrophila) (P26918 whole entry): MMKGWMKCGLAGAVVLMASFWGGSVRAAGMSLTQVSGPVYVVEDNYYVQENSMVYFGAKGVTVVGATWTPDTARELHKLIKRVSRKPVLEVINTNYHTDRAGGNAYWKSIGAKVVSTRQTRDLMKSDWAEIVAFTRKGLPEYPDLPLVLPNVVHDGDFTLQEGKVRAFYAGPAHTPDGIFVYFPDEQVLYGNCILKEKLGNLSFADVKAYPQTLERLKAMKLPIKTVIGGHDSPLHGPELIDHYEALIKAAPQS
A short description of test [11]: as §1. On the set-up: species or system Fluoribacter gormanii.

With `O=C(NO)c1cc(O)cc(C(=O)NCc2ccccc2)c1`, the Activity in [1] stood at 95%; in the test on Fluoribacter gormanii [3], 46%; in the test on Bacillus cereus [4], 103%; in [5], 81%; in [6], 81%. The inhibition in the test with Fluoribacter gormanii [2] was 54%.

As to `O=C(O)c1cc(O)cc(C(=O)NO)c1`, the Activity in test [1] amounted to 97%; with Fluoribacter gormanii [3] it was 92%; in the test on Bacillus cereus [4] it was 93%; in test [5] it was 67%; in [6] it was 79%.

As for `O=C(NO)c1ccc(O)cc1`, the inhibition in the test with Fluoribacter gormanii [2] stood at 53%.

In the test with Fluoribacter gormanii [2], `O=C(NO)c1ccccc1O` displayed an inhibition of 45%.

For `O=C(NO)c1cc(O)cc(C(=O)N2CCCC2)c1`, the Activity in test [1] came to 92%; with Fluoribacter gormanii [3], 64%; with Bacillus cereus [4] it was 100%; in test [5] it was 85%; in [6], 86%. Further, the inhibition in the test on Fluoribacter gormanii [2] was found to be 36%.

For `O=C(O)c1cc(O)cc(C(=O)c2ccc(O)cc2)c1`, the Activity in [1] was 107%; in the test on Fluoribacter gormanii [3], 67%; with Bacillus cereus [4], 86%; in test [5], 100%; in [6] it was 83%.

In the case of `O=C(NO)c1ccccc1`, the inhibition with Fluoribacter gormanii [2] amounted to 55%. The outcome (in test [7]; in the test on Bacillus cereus [8]; in [9]; in [10]) was inactive.

Turning to `O=C(NO)c1cc(O)cc(C(=O)Nc2ccccc2)c1`, the Activity in test [1] turned out to be 103%; with Fluoribacter gormanii [3], 42%; with Bacillus cereus [4], 82%; in [5] it was 92%; in [6], 90%. The same molecule yielded an inhibition in the test on Fluoribacter gormanii [2] of 58%.

Regarding `O=C(O)c1cccc(C(=O)NO)c1`, the inhibition (in the test on Fluoribacter gormanii [2]; in test [7]; in the test with Bacillus cereus [8]; in test [9]; in test [10]) was under 10% each time.

Consider `O=C(NO)c1cccc(O)c1`, for which the inhibition in the test on Fluoribacter gormanii [2] was determined as 64%. Moreover, the affinity in test [11], expressed as Ki, was 17.9 µM.

`O=C(NO)c1cc(O)cc(O)c1`: in test [11], the Ki turned out to be 13.3 µM.

As to `CCN(CC)C(=O)c1cc(O)cc(C(=O)NO)c1`, the Activity in [1] is 93%; with Fluoribacter gormanii [3], 66%; in the test on Bacillus cereus [4] it was 101%; in test [5], 85%; in test [6] it was 90%. The molecule further displayed an inhibition in the test on Fluoribacter gormanii [2] of 34%.

As to `O=C(O)CCC(=O)NO`, the inhibition (in the test with Fluoribacter gormanii [2]; in test [7]; in the test on Bacillus cereus [8]; in test [9]; in test [10]) was under 10% throughout.

Take `CNC(=O)c1cc(O)cc(C(=O)NO)c1`: the Activity in test [1] is 96%; in the test on Fluoribacter gormanii [3] it was 47%; in the test with Bacillus cereus [4], 103%; in [5] it was 93%; in test [6] it was 92%. The molecule further came in with an inhibition in the test with Fluoribacter gormanii [2] of 53%.

Regarding `O=C(NO)c1cc(O)cc(C(=O)c2ccc(O)cc2)c1`, the Activity in test [1] worked out at 102%; with Fluoribacter gormanii [3], 15%; in the test with Bacillus cereus [4], 91%; in [5], 83%; in test [6] it was 84%.
